Test results published in patent publication US9540691B2, “Assays and methods for selecting a treatment regimen for a subject with depression” (THE GENERAL HOSPITAL CORPORATION, priority 2011, dated 2017).
Like-named read-outs stand apart in the source and are kept apart here.

Tested on: MDD patients carrying the indicated conditions
Conditions: Phase I, with SSRI
Procedure: Folate levels are classified as either low (<=2.5 ng/ml) or normal; and homocysteine levels as either normal or elevated (>=[…]). The presence or absence of at least one […] allele for the MTHFR gene are entered as a dichotomous variable (present or absent). […] Using folate as an example predicator, the presence or absence of a low serum-folate level along with treatment assignment can be entered in a 2×2, factorial ANOVA, using depression improvement scores (baseline minus endpoint HAM-D-17 scores) as the dependant variable. […] Similar analyses (i.e. separate 2×2 ANOVA's) can be performed substituting the presence of low folate levels for the presence of other predictors as described herein. Similarly, the effect of other predictors can be indicated by the interaction term representing the potential modulating influence of those variables.
Particularly, specific genetic and biomarkers that were assessed include the following: • (a) BMI calculation of at least about 30 kg/m^2; • (b) an expression ratio of SAM/SAH smaller than 2.8 (e.g., 2.71) as measured in a plasma sample; • (c) a level of 4-HNE no less than 3.28 μg/mL (as measured in a plasma sample); • (d) presence of rare variants CT or TT at position 677 of SEQ ID NO: 1 corresponding to a portion of a genomic nucleic acid sequence of methylenetetrahydrofolate reductase (MTHFR) (abbreviated as “MTHFR 677” below); • (e) presence of rare variants AG or GG at position 2756 of SEQ ID NO: 2 corresponding to a portion of genomic nucleic acid sequence of methionine synthase (MTR) (abbreviated as “MTR 2756” below); and • (f) presence of rare variants AG or GG at position 66 of SEQ ID NO: 3 corresponding to a portion of genomic nucleic acid sequence of methionine synthase reductase (MTRR) (abbreviated as “MTRR 66” below).
The efficacy effect is determined by measuring the mean change in the HAMD-17 score and HAMD-28 score by the end of Phase I and Phase II, as compared to the baseline.

Question: For `CN1c2c(nc(N)[nH]c2=O)NC[C@@H]1CNc1ccc(C(=O)N[C@@H](CCC(=O)O)C(=O)O)cc1` [6(S)-5-MTHF, 6(S)-5-methyltetrahydrofolate], which “Effect, change in HAMD-17 score” value (25 =< BMI < 30 kg/m^2 (18, 10)) is on record?
Answer: 2.600

Question: What about the “Effect, change in HAMD-28 score” value (25 =< BMI < 30 kg/m^2 (18, 10)) of the same compound?
Answer: 2.602

Question: And the “Effect, change in HAMD-17 score” value (BMI < 25 (14, 7))?
Answer: 1.576

Question: And the “Effect, change in HAMD-28 score” value (BMI < 25 (14, 7))?
Answer: 0.909

Question: What about the “Effect, change in HAMD-17 score” value (BMI < 30 kg/m^2 and HNE-His < median (19, 9)) of the same compound?
Answer: 3.771

Question: And the “Effect, change in HAMD-28 score” value (BMI < 30 kg/m^2 and HNE-His < median)?
Answer: 4.606

Question: And the “Effect, change in HAMD-17 score” value (BMI < 30 kg/m^2 and SAM/SAH >= median (16,8))?
Answer: 4.333

Question: What about the “Effect, change in HAMD-28 score” value (BMI < 30 kg/m^2 and SAM/SAH >= median) of the same compound?
Answer: 4.333

Question: And the “Effect, change in HAMD-17 score” value (BMI >= 30 kg/m^2 (40,21))?
Answer: −6.414

Question: What about the “Effect, change in HAMD-28 score” value (BMI >= 30 kg/m^2 (40,21)) of the same compound?
Answer: −6.677

Question: What about the “Effect, change in HAMD-17 score” value (BMI >= 30 kg/m^2 and HNE-His >= median (23, 11)) of the same compound?
Answer: −6.569

Question: And the “Effect, change in HAMD-28 score” value (BMI >= 30 kg/m^2 and HNE-His >= median)?
Answer: −6.510

Question: And the “Effect, change in HAMD-17 score” value (BMI >= 30 kg/m^2 and SAM/SAH < median (21,9))?
Answer: −5.611

Question: What about the “Effect, change in HAMD-28 score” value (BMI >= 30 kg/m^2 and SAM/SAH < median = 2.71 (plasma sample)) of the same compound?
Answer: −6.306

Question: What about the “Effect, change in HAMD-17 score” value (MTHFR 677 CC and BMI < 30 kg/m^2 (17,8)) of the same compound?
Answer: 4.500

Question: What about the “Effect, change in HAMD-28 score” value (MTHFR 677 CC and BMI < 30 kg/m^2) of the same compound?
Answer: 2.769

Question: What about the “Effect, change in HAMD-17 score” value (MTHFR 677 CC and HNE-His < median (20,11)) of the same compound?
Answer: −1.471

Question: What about the “Effect, change in HAMD-28 score” value (MTHFR 677 CC and HNE-His < median = 3.28 (plasma sample)) of the same compound?
Answer: −2.821

Question: And the “Effect, change in HAMD-17 score” value (MTHFR 677 CC and MTR 2756 AA (29,13))?
Answer: −0.700

Question: What about the “Effect, change in HAMD-28 score” value (MTHFR 677 CC and MTR 2756 AA) of the same compound?
Answer: −0.192

Question: And the “Effect, change in HAMD-17 score” value (MTHFR 677 CT or TT and BMI >= 30 kg/m^2 (13,6))?
Answer: −8.738

Question: What about the “Effect, change in HAMD-28 score” value (MTHFR 677 CT or TT and BMI >= 30 kg/m^2) of the same compound?
Answer: −9.857

Question: And the “Effect, change in HAMD-17 score” value (MTHFR 677 CT or TT and HNE-His >= median (11,6))?
Answer: −7.143

Question: What about the “Effect, change in HAMD-28 score” value (MTHFR 677 CT or TT and HNE-His >= median) of the same compound?
Answer: −6.929

Question: What about the “Effect, change in HAMD-17 score” value (MTHFR 677 CT or TT and MTR 2756 AG or GG (8,4)) of the same compound?
Answer: −13.47

Question: And the “Effect, change in HAMD-28 score” value (MTHFR 677 CT or TT and MTR 2756 AG or GG)?
Answer: −18.00

Question: And the “Effect, change in HAMD-17 score” value (MTR 2756 AA (45,21))?
Answer: −0.621

Question: And the “Effect, change in HAMD-17 score” value (MTR 2756 AA and BMI < 30 kg/m^2 (17,7))?
Answer: 4.476

Question: And the “Effect, change in HAMD-28 score” value (MTR 2756 AA and BMI < 30 kg/m^2)?
Answer: 5.524

Question: What about the “Effect, change in HAMD-17 score” value (MTR 2756 AA and HNE-His < median (26,13)) of the same compound?
Answer: 0.306

Question: What about the “Effect, change in HAMD-28 score” value (MTR 2756 AA and HNE-His < median) of the same compound?
Answer: 0.639

Question: And the “Effect, change in HAMD-17 score” value (MTR 2756 AA and MTRR 66 AA (11,5))?
Answer: 3.125

Question: And the “Effect, change in HAMD-17 score” value (MTR 2756 AA and MTRR 66 AA and HNE-His < median (6,4))?
Answer: 3.000

Question: What about the “Effect, change in HAMD-28 score” value (MTR 2756 AA and MTRR 66 AA and HNE-His < median = 3.28 (plasma sample)) of the same compound?
Answer: 4.200

Question: And the “Effect, change in HAMD-17 score” value (MTR 2756 AA and MTRR 66 AA and SAM/SAH >= median (6,3))?
Answer: −0.400

Question: What about the “Effect, change in HAMD-28 score” value (MTR 2756 AA and MTRR 66 AA and SAM/SAH >= median) of the same compound?
Answer: −1.000

Question: What about the “Effect, change in HAMD-28 score” value (MTR 2756 AA and MTRR 66 AA) of the same compound?
Answer: 5.000

Question: And the “Effect, change in HAMD-17 score” value (MTR 2756 AA and SAM/SAH >= median (24,12))?
Answer: −1.556

Question: And the “Effect, change in HAMD-28 score” value (MTR 2756 AA and SAM/SAH >= median)?
Answer: −1.278

Question: What about the “Effect, change in HAMD-28 score” value (MTR 2756 AA) of the same compound?
Answer: 0.409

Question: What about the “Effect, change in HAMD-17 score” value (MTR 2756 AG or GG and BMI >= 30 kg/m^2 (10,5)) of the same compound?
Answer: −12.905

Question: What about the “Effect, change in HAMD-28 score” value (MTR 2756 AG or GG and BMI >= 30 kg/m^2) of the same compound?
Answer: −18.762

Question: What about the “Effect, change in HAMD-17 score” value (MTR 2756 AG or GG and HNE-His >= median (13,7)) of the same compound?
Answer: −7.125

Question: What about the “Effect, change in HAMD-28 score” value (MTR 2756 AG or GG and HNE-His >= median = 3.28 (plasma sample)) of the same compound?
Answer: −9.950

Question: And the “Effect, change in HAMD-17 score” value (MTR 2756 AG or GG and MTRR 66 AG or GG (15,7))?
Answer: −6.900

Question: What about the “Effect, change in HAMD-17 score” value (MTR 2756 AG or GG and MTRR 66 AG or GG and BMI >= 30 kg/m^2 (8,4)) of the same compound?
Answer: −13.667

Question: What about the “Effect, change in HAMD-28 score” value (MTR 2756 AG or GG and MTRR 66 AG or GG and BMI >= 30 kg/m^2) of the same compound?
Answer: −18.833

Question: What about the “Effect, change in HAMD-17 score” value (MTR 2756 AG or GG and MTRR 66 AG or GG and HNE-His >= median (10,4)) of the same compound?
Answer: −7.200

Question: What about the “Effect, change in HAMD-28 score” value (MTR 2756 AG or GG and MTRR 66 AG or GG and HNE-His >= median) of the same compound?
Answer: −9.800

Question: And the “Effect, change in HAMD-17 score” value (MTR 2756 AG or GG and MTRR 66 AG or GG and SAM/SAH < median (8,3))?
Answer: −9.000

Question: And the “Effect, change in HAMD-28 score” value (MTR 2756 AG or GG and MTRR 66 AG or GG and SAM/SAH < median = 2.71 (plasma sample))?
Answer: −12.741

Question: What about the “Effect, change in HAMD-28 score” value (MTR 2756 AG or GG and MTRR 66 AG or GG) of the same compound?
Answer: −9.996

Question: And the “Effect, change in HAMD-17 score” value (MTR 2756 AG or GG and SAM/SAH < median (10,4))?
Answer: −9.800

Question: And the “Effect, change in HAMD-28 score” value (MTR 2756 AG or GG and SAM/SAH < median = 2.71 (plasma sample))?
Answer: −14.993

Question: What about the “Effect, change in HAMD-17 score” value (MTR 2756 AG/GG (20,11)) of the same compound?
Answer: −7.143

Question: What about the “Effect, change in HAMD-28 score” value (MTR 2756 AG/GG) of the same compound?
Answer: −10.926
